Literature values as cited in patent publication US20090012010A1, “Amino acid derivatives as calcium channel blockers” (Neuromed Phramaceuticals Ltd., priority 2007, published 2009).

Test system: T-type calcium channels

COCC(=O)O[C@]1(CCN(C)CCCc2nc3ccccc3[nH]2)CCc2cc(F)ccc2[C@@H]1C(C)C [Mibefradil]
fold selective for T-type over L-type channels: 10-30 fold
